SMILES strings stand for the structures. Where two headings read alike, the source gives them in different places. Some results are limits rather than exact numbers.

The values below come from patent US9969726B2, “Metabotropic glutamate receptor negative allosteric modulators (NAMS) and uses thereof” (Sanford-Burnham Medical Research Institute, priority 2014, dated 2018).

One test deals with rat mGlu2 receptor (Rattus norvegicus (Rat), UniProt P31421). The test is described as follows: mGlu2 in vitro GIRK thallium flux assay. The settings on record: NAM, EC80 glutamate, HEK-293 GIRK cells. The format is cell-based. In outline:
(§1)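 Cells expressing rat mGlu2 or mGlu3 with GIRK, plated overnight at 37 °C. Test compounds (0.3% DMSO, 10-point 1:3 series) preincubated 2.5 or 60 min, then thallium buffer plus EC80 glutamate added. Fluorescence slope 5–15 s after addition, normalised to vehicle and maximal agonist, fitted by four-parameter logistic.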

The next test has as its target rat mGlu3 receptor (Rattus norvegicus (Rat), UniProt P31422). Kind of test: mGlu3 in vitro GIRK thallium flux assay. The format is cell-based. The settings on record: NAM; 2.5 min compound incubation; EC80 glutamate; HEK-293 GIRK cells. In outline: as §1
The mark [1] stands for this setting: 2.5 min compound incubation, read-out: mGlu2 EC50 (μM) (2.5 min).
The mark [2] stands for this setting: mGlu2 EC50 (μM) (60 min), 60 min compound incubation.
Setting [3] is: read-out: mGlu2 EC50 (μM) (60 min), 60 min compound incubation.

Chain of rat mGlu2 receptor (P31421 19-872): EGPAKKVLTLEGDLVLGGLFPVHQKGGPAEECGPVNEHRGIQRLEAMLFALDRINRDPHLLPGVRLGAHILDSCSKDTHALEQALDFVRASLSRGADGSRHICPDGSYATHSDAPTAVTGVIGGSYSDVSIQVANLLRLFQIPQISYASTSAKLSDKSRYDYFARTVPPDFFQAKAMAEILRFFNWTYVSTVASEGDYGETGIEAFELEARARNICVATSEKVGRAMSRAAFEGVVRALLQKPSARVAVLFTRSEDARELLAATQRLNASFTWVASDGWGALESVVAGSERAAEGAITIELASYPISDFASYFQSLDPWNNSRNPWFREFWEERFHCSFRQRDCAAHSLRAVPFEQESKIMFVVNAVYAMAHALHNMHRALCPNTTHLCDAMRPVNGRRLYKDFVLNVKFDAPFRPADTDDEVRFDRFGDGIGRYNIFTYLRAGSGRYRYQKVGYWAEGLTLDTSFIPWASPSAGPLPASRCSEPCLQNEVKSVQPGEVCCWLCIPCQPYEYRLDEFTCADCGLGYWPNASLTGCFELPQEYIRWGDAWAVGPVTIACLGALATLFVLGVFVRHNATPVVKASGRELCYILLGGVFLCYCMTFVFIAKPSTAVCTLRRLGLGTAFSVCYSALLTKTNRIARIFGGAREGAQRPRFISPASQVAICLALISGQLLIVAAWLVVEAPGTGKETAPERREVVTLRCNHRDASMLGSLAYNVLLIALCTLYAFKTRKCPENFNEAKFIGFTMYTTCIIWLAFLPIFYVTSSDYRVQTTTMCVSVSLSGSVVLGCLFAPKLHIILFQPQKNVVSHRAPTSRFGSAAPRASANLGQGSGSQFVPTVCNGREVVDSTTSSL
Chain of rat mGlu3 receptor (P31422 23-879): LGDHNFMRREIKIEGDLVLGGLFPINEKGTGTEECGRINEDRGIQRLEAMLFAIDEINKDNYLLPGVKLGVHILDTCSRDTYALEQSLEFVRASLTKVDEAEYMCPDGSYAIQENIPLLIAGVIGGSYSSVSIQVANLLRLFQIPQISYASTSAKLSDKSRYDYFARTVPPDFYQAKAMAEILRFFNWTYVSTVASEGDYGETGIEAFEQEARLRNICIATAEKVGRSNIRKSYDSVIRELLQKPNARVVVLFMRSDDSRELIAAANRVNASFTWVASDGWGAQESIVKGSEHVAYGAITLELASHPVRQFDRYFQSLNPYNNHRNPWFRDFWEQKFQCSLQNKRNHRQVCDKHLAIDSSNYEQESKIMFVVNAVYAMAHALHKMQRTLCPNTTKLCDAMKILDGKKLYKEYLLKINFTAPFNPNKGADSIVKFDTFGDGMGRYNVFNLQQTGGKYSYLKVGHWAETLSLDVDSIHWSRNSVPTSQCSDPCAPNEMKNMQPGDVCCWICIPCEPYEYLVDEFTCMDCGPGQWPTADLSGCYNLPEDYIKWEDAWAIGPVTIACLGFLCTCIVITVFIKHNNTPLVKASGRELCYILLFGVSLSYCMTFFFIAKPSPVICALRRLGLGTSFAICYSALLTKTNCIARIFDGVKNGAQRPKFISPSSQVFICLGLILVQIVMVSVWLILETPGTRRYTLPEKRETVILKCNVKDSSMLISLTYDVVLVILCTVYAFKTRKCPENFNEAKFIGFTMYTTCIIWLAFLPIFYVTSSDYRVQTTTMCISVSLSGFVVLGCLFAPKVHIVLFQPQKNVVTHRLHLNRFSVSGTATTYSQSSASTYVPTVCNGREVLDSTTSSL

The term EC50 denotes the midpoint of the concentration-response curve. Regarding `O=C(O)c1cc(F)cc(-c2cccc(-c3nc(-c4ccccc4)n(-c4ccccc4)n3)c2)c1` [Example 52, 3′-(1,5-Diphenyl-1H-1,2,4-triazol-3-yl)-5-fluorobiphenyl-3-carboxylic Acid], the figures for the concentration for a half-maximal effect (EC50) on rat mGlu2 receptor (setting [1]), on rat mGlu2 receptor (setting [2]) and on rat mGlu3 receptor were more than 10 µM, more than 10 µM and 3.11 µM, respectively.

Turning to `COc1ccc(-c2cc(C(F)(F)F)nc(-c3cccc(-c4ccc(F)c(C(=O)O)c4)c3)n2)cn1` [Example 120, 4-Fluoro-3′-(4-(6-methoxypyridin-3-yl)-6-(trifluoromethyl)pyrimidin-2-yl)-[1,1′-biphenyl]-3-carboxylic Acid], the figures for the EC50 at rat mGlu2 receptor (setting [1]), at rat mGlu2 receptor (setting [3]) and on rat mGlu3 receptor were 1.43 µM, 0.35 µM and 1.41 µM, respectively.

On to `O=C(O)c1cccc(-c2cccc(-c3csc(/C=C/c4ccccc4)n3)c2)c1` [Example 36, (E)-3′-(2-Styrylthiazol-4-yl)biphenyl-3-carboxylic Acid], for which the EC50 at rat mGlu2 receptor (setting [1]) is 3.47 µM; on rat mGlu2 receptor (setting [2]) it was more than 10 µM; on rat mGlu3 receptor, more than 10 µM.

Take `O=C(O)c1cc(-c2cccc(Nc3nc(-c4ccco4)cc(C(F)(F)F)n3)c2)ccc1F` [Example 127, 4-Fluoro-3′-(4-(furan-2-yl)-6-(trifluoromethyl)pyrimidin-2-ylamino)biphenyl-3-carboxylic Acid]: the EC50 at rat mGlu2 receptor (setting [1]) was 5.33 µM; at rat mGlu2 receptor (setting [3]), more than 10 µM; at rat mGlu3 receptor it was 3.9 µM.

With `Cc1cc2c(cc1C(F)(F)F)NC(=O)CC(c1cccc(Oc3ccccc3)c1)=N2` [Example 143, 7-Methyl-4-(3-phenoxyphenyl)-8-(trifluoromethyl)-1H-benzo[b][1, 4]diazepin-2 (3H)-one], the EC50 on rat mGlu2 receptor (setting [1]) was found to be 2.21 µM; on rat mGlu2 receptor (setting [2]), 1.19 µM; at rat mGlu3 receptor, 2.62 µM.

Consider `O=C(O)c1cc(-c2ccccc2-c2csc(-c3ccccc3)n2)ccc1F` [Example 18, 4-Fluoro-2′-(2-phenylthiazol-4-yl)biphenyl-3-carboxylic Acid], for which the EC50 was more than 10 µM on rat mGlu2 receptor (setting [1]), more than 30 µM on rat mGlu2 receptor (setting [3]) and more than 10 µM at rat mGlu3 receptor.

As for `O=C1CC(c2ccnc(Cl)c2)=Nc2ccc(-c3ccc(Br)nc3)cc2N1` [Example 199, 8-(6-Bromopyridin-3-yl)-4-(2-chloropyridin-4-yl)-1,3-dihydro-2H-benzo[b][1,4]diazepin-2-one], the concentration for a half-maximal effect (EC50) at rat mGlu2 receptor (setting [1]) came to 1.7 µM; at rat mGlu2 receptor (setting [3]), 4.27 µM; at rat mGlu3 receptor, 1.82 µM.

In the case of `O=C1CC(c2ccnc(Cl)c2)=Nc2ccc(-c3ccccc3)cc2N1` [Example 197, 4-(2-Chloropyridin-4-yl)-8-phenyl-1,3-dihydro-2H-benzo[b][1,4]diazepin-2-one], the EC50 on rat mGlu2 receptor (setting [1]) and at rat mGlu3 receptor was more than 10 µM in each case.

As to `CONC(=O)c1cc(-c2cccc(-c3nc(-c4ccoc4)cc(C(F)(F)F)n3)c2)ccc1F` [Example 132, 4-Fluoro-3′-(4-(furan-3-yl)-6-(trifluoromethyl)pyrimidin-2-yl)-N-methoxy-[1,1′-biphenyl]-3-carboxamide], the EC50 on rat mGlu2 receptor (setting [1]) was more than 10 µM; on rat mGlu2 receptor (setting [3]), 7.1 µM; on rat mGlu3 receptor, 5.26 µM.

On to `O=Cc1cc(-c2cccc(-c3csc(-c4ccccc4)n3)c2)ccc1F` [Example 19, 4-Fluoro-3′-(2-phenylthiazol-4-yl)biphenyl-3-carbaldehyde], for which the values for the EC50 at rat mGlu2 receptor (setting [1]), on rat mGlu2 receptor (setting [2]) and on rat mGlu3 receptor were 3.67 µM, 1.55 µM and more than 10 µM, respectively.

Take `O=C(O)c1cc(-c2cccc(-c3nc(-c4cc5ccccc5o4)cc(C(F)(F)F)n3)c2)ccc1F` [Example 101, 3′-(4-(Benzofuran-2-yl)-6-(trifluoromethyl)pyrimidin-2-yl)-4-fluorobiphenyl-3-carboxylic Acid]: the figures for the EC50 on rat mGlu2 receptor (setting [1]), on rat mGlu2 receptor (setting [3]) and on rat mGlu3 receptor were more than 10 µM, 0.95 µM and more than 10 µM, respectively.

Regarding `Cc1cc(-c2ccoc2)nc(-c2cccc(-c3ccc(F)c(C(=O)O)c3)c2)n1` [Example 117, 4-Fluoro-3′-(4-(furan-3-yl)-6-methylpyrimidin-2-yl)biphenyl-3-carboxylic acid], the EC50 on rat mGlu2 receptor (setting [1]) stood at 0.08 µM; at rat mGlu2 receptor (setting [3]) it was 0.07 µM; on rat mGlu3 receptor, 0.28 µM.

As to `Cc1cc2c(cc1C(F)(F)F)NC(=O)CC(c1cccc(C#Cc3ccccc3)c1)=N2` [Example 202, 7-Methyl-4-(3-phenylethynyl-phenyl)-8-trifluoromethyl-1,3-dihydro-benzo[b][1,4]diazepin-2-one], the EC50 on rat mGlu2 receptor (setting [1]), on rat mGlu2 receptor (setting [3]) and at rat mGlu3 receptor was more than 10 µM each time.

Take `O=C(O)c1cc(-c2cccc(-c3csc(-c4ccco4)n3)c2)ccc1F` [Example 7, 4-Fluoro-3′-(2-(furan-2-yl)thiazol-4-yl)biphenyl-3-carboxylic Acid]: the EC50 was 2.4 µM at rat mGlu2 receptor (setting [1]), more than 10 µM at rat mGlu2 receptor (setting [2]) and more than 10 µM on rat mGlu3 receptor.

For `O=C(O)c1cccc(-c2cccc(-c3nc(-c4ccccc4)n(Cc4ccccc4)n3)c2)c1` [Example 54, 3′-(1-Benzyl-5-phenyl-1H-1,2,4-triazol-3-yl)-[1,1′-biphenyl]-3-carboxylic Acid], the EC50 is more than 10 µM at rat mGlu2 receptor (setting [1]), 2.71 µM at rat mGlu2 receptor (setting [2]) and 3.9 µM at rat mGlu3 receptor.

Take `O=C(O)c1cc(F)cc(-c2cccc(-c3nc(-c4ccccc4)cc(C(F)(F)F)n3)c2)c1` [Example 104, 5-Fluoro-3′-(4-phenyl-6-(trifluoromethyl)pyrimidin-2-yl)biphenyl-3-carboxylic Acid]: the EC50 is 1.44 µM at rat mGlu2 receptor (setting [1]), 0.24 µM on rat mGlu2 receptor (setting [3]) and 1.9 µM on rat mGlu3 receptor.

`O=C(O)c1cccc(-c2cccc(-c3nc(-c4ccc(C(F)(F)F)nc4)cc(C(F)(F)F)n3)c2)c1` [Example 69, 3′-(4-(Trifluoromethyl)-6-(6-(trifluoromethyl)pyridin-3-yl)pyrimidin-2-yl)biphenyl-3-carboxylic Acid]: the EC50 was determined as 0.95 µM at rat mGlu2 receptor (setting [1]), 0.11 µM at rat mGlu2 receptor (setting [3]) and 1.07 µM at rat mGlu3 receptor.

Consider `O=C(O)c1cccc(-c2cccc(-c3coc(-c4ccccc4)n3)c2)c1` [Example 47, 3′-(2-Phenyloxazol-4-yl)-[1,1′-biphenyl]-3-carboxylic Acid], for which the EC50 on rat mGlu2 receptor (setting [1]) is more than 10 µM; at rat mGlu2 receptor (setting [2]) it was more than 10 µM; on rat mGlu3 receptor it was more than 30 µM.

For `O=C(O)c1cccc(-c2cccc(-c3csc(-c4ccc5c(c4)OCCO5)n3)c2)c1` [Example 34, 3-[3-(2-(2H,3H-benzo[e]1,4-dioxin-6-yl)-1,3-thiazol-4-yl)phenyl]benzoic acid], the EC50 on rat mGlu2 receptor (setting [1]) was more than 10 µM; on rat mGlu2 receptor (setting [3]), 0.28 µM; at rat mGlu3 receptor, more than 10 µM.

`O=C(O)c1cc(-c2cccc(-c3nc(/C=C/c4ccccc4)cc(C(F)(F)F)n3)c2)ccc1F` [Example 95, (E)-4-Fluoro-3′-(4-styryl-6-(trifluoromethyl)pyrimidin-2-yl)biphenyl-3-carboxylic Acid]: the EC50 on rat mGlu2 receptor (setting [1]) and at rat mGlu3 receptor was more than 10 µM in each case.

On to `N#Cc1cc(C2=Nc3ccc(F)cc3NC(=O)C2)ccn1` [Example 180, 4-(8-Fluoro-2-oxo-2,3-dihydro-1H-benzo[b][1,4]diazepin-4-yl)picolinonitrile], for which the figures for the EC50 at rat mGlu2 receptor (setting [1]), at rat mGlu2 receptor (setting [3]) and at rat mGlu3 receptor were 0.88 µM, 0.31 µM and 0.86 µM, respectively.

On to `O=C1CC(c2ccnc(Cl)c2)=Nc2ccc(-c3cccnc3F)cc2N1` [Example 188, 4-(2-Chloropyridin-4-yl)-8-(2-fluoropyridin-3-yl)-1,3-dihydro-2H-benzo[b][1,4]diazepin-2-one], for which the EC50 at rat mGlu2 receptor (setting [1]) was more than 10 µM; at rat mGlu3 receptor it was 1.7 µM.

As to `Cc1ccc(-c2cc(C(F)(F)F)nc(-c3cccc(-c4ccc(F)c(C(=O)O)c4)c3)n2)s1` [Example 112, 4-Fluoro-3′-(4-(5-methylthiophen-2-yl)-6-(trifluoromethyl)pyrimidin-2-yl)biphenyl-3-carboxylic Acid], the EC50 was determined as 3.19 µM on rat mGlu2 receptor (setting [1]), 0.75 µM on rat mGlu2 receptor (setting [3]) and 3.14 µM on rat mGlu3 receptor.

Take `Cc1cc2c(cc1C(F)(F)F)NC(=O)CC(c1cccc(Oc3ncccn3)c1)N2` (racemic) [Example 164, 7-Methyl-4-(3-(pyrimidin-2-yloxy)phenyl)-8-(trifluoromethyl)-4,5-dihydro-1H-benzo[b][1,4]diazepin-2(3H)-one]: the EC50 at rat mGlu2 receptor (setting [1]) is more than 10 µM; at rat mGlu2 receptor (setting [2]) it was 1.56 µM; at rat mGlu3 receptor it was 5.57 µM.

Consider `N#Cc1cccc(-c2cccc(-c3csc(-c4ccccc4)n3)c2)c1` [Example 14, 3′-(2-Phenylthiazol-4-yl)biphenyl-3-carbonitrile], for which the figures for the EC50 at rat mGlu2 receptor (setting [1]), on rat mGlu2 receptor (setting [3]) and at rat mGlu3 receptor were more than 30 µM, more than 10 µM and more than 30 µM, respectively.

As to `CCOc1ccc(-c2ccc3c(c2)NC(=O)CC(c2ccnc(Cl)c2)=N3)cc1` [Example 192, 4-(2-Chloropyridin-4-yl)-8-(4-ethoxyphenyl)-1,3-dihydro-2H-benzo[b][1,4]diazepin-2-one], the half-maximal effective concentration (EC50) at rat mGlu2 receptor (setting [1]) and at rat mGlu3 receptor was more than 10 µM in each case.

`O=C1CC(c2ccnc(Cl)c2)=Nc2ccc(-c3cc(F)cc(F)c3)cc2N1` [Example 190, 4-(2-Chloropyridin-4-yl)-8-(3,5-difluorophenyl)-1,3-dihydro-2H-benzo[b][1,4]diazepin-2-one]: the EC50 on rat mGlu2 receptor (setting [1]) and at rat mGlu3 receptor was more than 10 µM in each case.

With `O=C(O)c1cc(-c2cccc(-c3nc(-c4ccccc4F)cc(C(F)(F)F)n3)c2)ccc1F` [Example 100, 4-Fluoro-3′-(4-(2-fluorophenyl)-6-(trifluoromethyl)pyrimidin-2-yl)biphenyl-3-carboxylic Acid], the EC50 was determined as 1.21 µM at rat mGlu2 receptor (setting [1]), 0.16 µM at rat mGlu2 receptor (setting [3]) and 2.21 µM at rat mGlu3 receptor.
